From PubChem BioAssay (NCI)
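Compound exposure: 48 hours, 5 concentrations, 96-well plates. Abbreviation: GI50, concentration required for 50% inhibition of growth. At the TGI there is no net growth.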

Legend:
Assay in all cases: growth of human tumour cells (NCI), 48 h
BT-549 breast = system: BT-549 breast
NCI-H522 lung = system: NCI-H522 lung
OVCAR-4 ovarian = system: OVCAR-4 ovarian
SK-MEL-2 melanoma = system: SK-MEL-2 melanoma
HOP-92 NSCLC = system: HOP-92 NSCLC
HCT-116 colon = system: HCT-116 colon
LOX IMVI melanoma = system: LOX IMVI melanoma
OVCAR-5 ovarian = system: OVCAR-5 ovarian
A549 NSCLC = system: A549 NSCLC
NCI/ADR-RES ovarian = system: NCI/ADR-RES ovarian
MOLT-4 leukemia = system: MOLT-4 leukemia
RPMI-8226 leukemia = system: RPMI-8226 leukemia
UO-31 renal = system: UO-31 renal
SN12C renal = system: SN12C renal
ACHN renal = system: ACHN renal
SF-295 CNS = system: SF-295 CNS
HT29 colon = system: HT29 colon
HL-60(TB) leukemia = system: HL-60(TB) leukemia
EKVX NSCLC = system: EKVX NSCLC
PC-3 prostate = system: PC-3 prostate
SR leukemia = system: SR leukemia
OVCAR-8 ovarian = system: OVCAR-8 ovarian
MDA-MB-231 breast = system: MDA-MB-231 breast
HCC-2998 colon = system: HCC-2998 colon
SNB-75 CNS = system: SNB-75 CNS
HS 578T breast = system: HS 578T breast
DU-145 prostate = system: DU-145 prostate
MALME-3M melanoma = system: MALME-3M melanoma
U251 CNS = system: U251 CNS
RXF 393 renal = system: RXF 393 renal
A498 renal = system: A498 renal
786-0 renal = system: 786-0 renal
SK-MEL-28 melanoma = system: SK-MEL-28 melanoma
UACC-62 melanoma = system: UACC-62 melanoma
NCI-H460 lung = system: NCI-H460 lung
KM12 colon = system: KM12 colon
CCRF-CEM leukemia = system: CCRF-CEM leukemia
NCI-H226 lung = system: NCI-H226 lung
CAKI-1 renal = system: CAKI-1 renal
K-562 leukemia = system: K-562 leukemia
HCT-15 colon = system: HCT-15 colon
M14 melanoma = system: M14 melanoma
SW-620 colon = system: SW-620 colon
TK-10 renal = system: TK-10 renal
COLO 205 colon = system: COLO 205 colon
MDA-MB-435 = system: MDA-MB-435
UACC-257 melanoma = system: UACC-257 melanoma
HOP-62 NSCLC = system: HOP-62 NSCLC
IGROV1 ovarian = system: IGROV1 ovarian
SK-OV-3 ovarian = system: SK-OV-3 ovarian
SF-268 CNS = system: SF-268 CNS
T-47D breast = system: T-47D breast
SK-MEL-5 melanoma = system: SK-MEL-5 melanoma
MCF7 breast = system: MCF7 breast
SF-539 CNS = system: SF-539 CNS
SNB-19 CNS = system: SNB-19 CNS

CC1(C)CC[C@]23CC[C@]4(C)[C@H](CC[C@@H]5[C@@]6(C)CC[C@H](NCO)C(C)(C)[C@@H]6CC[C@]54C)[C@H]2[C@H]1OC3
GI50 (BT-549 breast): 15.6 µM | TGI (BT-549 breast): 28.9 µM | GI50 (NCI-H522 lung): 16.3 µM | TGI (NCI-H522 lung): 32 µM | GI50 (OVCAR-4 ovarian): 14.3 µM | TGI (OVCAR-4 ovarian): 31 µM | GI50 (SK-MEL-2 melanoma): 14.2 µM | TGI (SK-MEL-2 melanoma): 27.2 µM | GI50 (HOP-92 NSCLC): 2.82 µM | TGI (HOP-92 NSCLC): 18.3 µM | GI50 (HCT-116 colon): 3.7 µM | TGI (HCT-116 colon): 12.9 µM | GI50 (LOX IMVI melanoma): 1.52 µM | TGI (LOX IMVI melanoma): 2.95 µM | GI50 (OVCAR-5 ovarian): 11.8 µM | TGI (OVCAR-5 ovarian): 24.1 µM | GI50 (A549 NSCLC): 4.39 µM | TGI (A549 NSCLC): 18.1 µM | GI50 (NCI/ADR-RES ovarian): 14 µM | TGI (NCI/ADR-RES ovarian): 30.9 µM | GI50 (MOLT-4 leukemia): 3.16 µM | TGI (MOLT-4 leukemia): 16.1 µM | GI50 (RPMI-8226 leukemia): 3.64 µM | TGI (RPMI-8226 leukemia): 18.7 µM | GI50 (UO-31 renal): 13.3 µM | TGI (UO-31 renal): 28.1 µM | GI50 (SN12C renal): 12 µM | TGI (SN12C renal): 30 µM | GI50 (ACHN renal): 5.01 µM | TGI (ACHN renal): 17.1 µM | GI50 (SF-295 CNS): 14.4 µM | TGI (SF-295 CNS): 28.7 µM | GI50 (HT29 colon): 5.25 µM | TGI (HT29 colon): 17.4 µM | GI50 (HL-60(TB) leukemia): 1.58 µM | TGI (HL-60(TB) leukemia): 4.62 µM | GI50 (EKVX NSCLC): 16.9 µM | TGI (EKVX NSCLC): 32.5 µM | GI50 (PC-3 prostate): 10.8 µM | TGI (PC-3 prostate): 31.6 µM | GI50 (SR leukemia): 0.741 µM | TGI (SR leukemia): 6.71 µM | GI50 (OVCAR-8 ovarian): 3.25 µM | TGI (OVCAR-8 ovarian): 11.9 µM | GI50 (MDA-MB-231 breast): 4 µM | TGI (MDA-MB-231 breast): 17.4 µM | GI50 (HCC-2998 colon): 1.95 µM | TGI (HCC-2998 colon): 4.17 µM | GI50 (SNB-75 CNS): 16.8 µM | TGI (SNB-75 CNS): 33.4 µM | GI50 (HS 578T breast): 15.3 µM | TGI (HS 578T breast): 42 µM | GI50 (DU-145 prostate): 14.1 µM | TGI (DU-145 prostate): 32 µM | GI50 (MALME-3M melanoma): 16 µM | TGI (MALME-3M melanoma): 34.3 µM | GI50 (U251 CNS): 2.5 µM | TGI (U251 CNS): 8.16 µM | GI50 (RXF 393 renal): 6.16 µM | TGI (RXF 393 renal): 20.4 µM | GI50 (A498 renal): 14.1 µM | TGI (A498 renal): 27.1 µM | GI50 (786-0 renal): 3.77 µM | TGI (786-0 renal): 15.3 µM | GI50 (SK-MEL-28 melanoma): 15.5 µM | TGI (SK-MEL-28 melanoma): 28.9 µM | GI50 (UACC-62 melanoma): 16.9 µM | TGI (UACC-62 melanoma): 31.5 µM | GI50 (NCI-H460 lung): 2.24 µM | TGI (NCI-H460 lung): 5.03 µM | GI50 (KM12 colon): 17.5 µM | TGI (KM12 colon): 31.3 µM | GI50 (CCRF-CEM leukemia): 5.93 µM | TGI (CCRF-CEM leukemia): > 100 µM | GI50 (NCI-H226 lung): 14.9 µM | TGI (NCI-H226 lung): 34 µM | GI50 (CAKI-1 renal): 10.2 µM | TGI (CAKI-1 renal): 23.3 µM | GI50 (K-562 leukemia): 2.35 µM | TGI (K-562 leukemia): 6.9 µM | GI50 (HCT-15 colon): 2.9 µM | TGI (HCT-15 colon): 10.9 µM | GI50 (M14 melanoma): 11.5 µM | TGI (M14 melanoma): 23.7 µM | GI50 (SW-620 colon): 1.7 µM | TGI (SW-620 colon): 3.7 µM | GI50 (TK-10 renal): 22.6 µM | TGI (TK-10 renal): 38 µM | GI50 (COLO 205 colon): 2.06 µM | TGI (COLO 205 colon): 4.18 µM | GI50 (MDA-MB-435): 12.9 µM | TGI (MDA-MB-435): 25.6 µM | GI50 (UACC-257 melanoma): 14.7 µM | TGI (UACC-257 melanoma): 28.3 µM | GI50 (HOP-62 NSCLC): 15.5 µM | TGI (HOP-62 NSCLC): 35.7 µM | GI50 (IGROV1 ovarian): 7.56 µM | TGI (IGROV1 ovarian): 22.6 µM | GI50 (SK-OV-3 ovarian): 15 µM | TGI (SK-OV-3 ovarian): 31.4 µM | GI50 (SF-268 CNS): 16.3 µM | TGI (SF-268 CNS): 37.9 µM | GI50 (T-47D breast): 7.72 µM | TGI (T-47D breast): 28.9 µM | GI50 (SK-MEL-5 melanoma): 15.3 µM | TGI (SK-MEL-5 melanoma): 28.6 µM | GI50 (MCF7 breast): 2.25 µM | TGI (MCF7 breast): 6.4 µM | GI50 (SF-539 CNS): 12.3 µM | TGI (SF-539 CNS): 26.5 µM | GI50 (SNB-19 CNS): 16.7 µM | TGI (SNB-19 CNS): 36.6 µM
